In patent publication US20120083013A1, “GLUCOSYLTRANSFERASE SPECIFIC TO POSITION-4 OF FUROFURAN-TYPE LIGNAN, AND POLYNUCLEOTIDE ENCODING SAME” (Suntory Holdings Limited, priority 2009, published 2012):

Key:
[1] = system: RengUGT14; experiment: glycosyl acceptor selectivity of recombinant RengUGT14 (standard enzyme reaction, HPLC analysis); type: biochemical, Forsythia koreana; conditions: 1 mM UDP-glucose, 100 μM glycosyl acceptor substrate, pH 7.5, 30° C., one hour; for transglycosylation activity (activity against the lignan of structural formula (Ia) made 100): relative activity as glycosyl acceptor substrate
Experimental: To clarify the biochemical functions of the enzymes, the two enzymes were expressed in Escherichia coli. Using the plasmid for two RengUGT Escherichia coli expression obtained above, Escherichia coli BL21 (DE3) strain was transformed in a conventional manner. The resulting transformants were shake cultured in 4 ml of LB medium (10 g/l tryptone peptone, 5 g/l yeast extract, 1 g/l NaCl) containing 50 μg/ml of ampicillin at 37° C. overnight. When the cells reached the stationary phase, 4 ml of the culture broth was inoculated onto 80 ml of fresh medium of the same composition, followed by shake culture at 37° C. At the point when the cell turbidity (OD 600) reached approximately 0.5, IPTG in a final concentration of 0.5 mM was added to the cells, followed by shake culture at 18° C. for 20 hours. The following procedures were all carried out at 4° C. The transformants cultured were collected by centrifugation (5,000×g, 10 mins.) and suspended by adding 1 ml/g cell of Buffer S (20 mM HEPES buffer (pH 7.5), 20 mM imidazole and 14 mM […]. Subsequently, the suspension was ultrasonicated (15 secs×8 times) and then centrifuged (15,000×g, 15 mins.). The supernatant obtained was recovered as a crude enzyme solution. The crude enzyme solution was loaded onto His SpinTrap (GE Healthcare), which had been equilibrated with Buffer S, and centrifuged (70×g, 30 secs.). After washing with the buffer, the proteins bound to the column were eluted stepwise with 5 ml each of Buffer S containing 100 mM and 500 mM imidazole. In each of the eluted fractions, the buffer was replaced through a Microcon YM-30 (Amicon) by 20 mM HEPES buffer (pH 7.5)/14 mM β-mercapto ethanol (magnification of dialysis, ×1000). As a result of the SDS-PAGE analysis, in the fraction eluted with […], the protein was confirmed at approximately 50 KDa of the estimated molecular weight for the two RengUGTs. This fraction was used for the enzyme analysis (FIG. 2). Conditions for the standard enzyme reaction are as follows. […] Based on the analysis that the spectra from 220 nm to 330 nm were measured using SPD-10AV (Shimadzu Corp.), search was made for substances having two absorption maxima (230 nm and 280 nm) inherent to lignans. Under the conditions, the lignan of structural formula (Ia) was detected at approximately 11.6 minutes, the lignan of structural formula (Ib) at approximately 12.2 minutes, the lignan of structural formula (Ic) at approximately 13.8 minutes, and the lignan of structural formula (V) at approximately 9.8 minutes. The expression level of RengUGT14 recombinant protein was high in Escherichia coli (FIG. 2), and the glycosyl acceptor selectivity was evaluated using this enzyme. […]

[2] = system: RengUGT13; experiment: glucosyltransferase reaction of recombinant RengUGT13 with lignan (HPLC, LC-MS of the product); type: biochemical, Forsythia koreana; conditions: 1 mM UDP-glucose, 100 μM glycosyl acceptor substrate, pH 7.5, 30° C., one hour
Experimental: To clarify the biochemical functions of the enzymes, the two enzymes were expressed in Escherichia coli. Using the plasmid for two RengUGT Escherichia coli expression obtained above, Escherichia coli BL21 (DE3) strain was transformed in a conventional manner. The resulting transformants were shake cultured in 4 ml of LB medium (10 g/l tryptone peptone, 5 g/l yeast extract, 1 g/l NaCl) containing 50 μg/ml of ampicillin at 37° C. overnight. When the cells reached the stationary phase, 4 ml of the culture broth was inoculated onto 80 ml of fresh medium of the same composition, followed by shake culture at 37° C. […]
Lc-2010c (Shimadzu Corp.) was used for LC; eluent A: 0.1% TFA and eluent B: 0.1% TFA/90% acetonitrile as the moving phase; Develosil-C30-UG5 (Nomura Chemical, 4.6 mm×150 mm) as the column at 40° C. […] Based on the analysis that the spectra from 220 nm to 330 nm were measured using SPD-10AV (Shimadzu Corp.), search was made for substances having two absorption maxima (230 nm and 280 nm) inherent to lignans. Under the conditions, the lignan of structural formula (Ia) was detected at approximately 11.6 minutes, the lignan of structural formula (Ib) at approximately 12.2 minutes, the lignan of structural formula (Ic) at approximately 13.8 minutes, and the lignan of structural formula (V) at approximately 9.8 minutes. […]

transglycosylation activity (activity against the lignan of structural formula (Ia) made 100) [1]	SMILES	glucose transfer to the lignan by RengUGT14 (product peak at HPLC, monoglucoside by LC-MS) [1]	glucose transfer to the lignan by RengUGT13 (product peak at HPLC, monoglucoside by LC-MS) [2]
128	COc1cc([C@H]2OC[C@H]3[C@@H]2CO[C@H]3c2ccc(OC)c(OC)c2)ccc1O [structural formula (Ic)]	–	–
100	COc1cc([C@H]2OC[C@H]3[C@@H]2CO[C@@H]3c2ccc(O)c(OC)c2)ccc1O [structural formula (Ia)]	activity of transferring one molecule of glucose	activity of transferring one molecule of glucose
112	COc1cc([C@H]2OC[C@H]3[C@@H]2CO[C@H]3c2ccc(O)c(OC)c2)ccc1O [structural formula (Ib)]	–	–
